Measurements as given in ChEMBL document CHEMBL1909046, “DrugMatrix in vitro pharmacology data”.

Tests used:
[1] = DRUGMATRIX: Potassium Channel [KATP] radioligand binding (ligand: [3H] Glyburide); format: cell membranes, Membrane; settings: hit-t15; Not Active = under 50% inhibition at 10 µM
[2] = target: Sodium-dependent noradrenaline transporter (Homo sapiens, UniProt P23975); assay: DRUGMATRIX: Norepinephrine Transporter radioligand binding (ligand: [125I] RTI-55); format: cell membranes, MDCK, Membrane; settings: mdck; Not Active = under 50% inhibition at 10 µM
Sequence of Sodium-dependent noradrenaline transporter (P23975 whole entry): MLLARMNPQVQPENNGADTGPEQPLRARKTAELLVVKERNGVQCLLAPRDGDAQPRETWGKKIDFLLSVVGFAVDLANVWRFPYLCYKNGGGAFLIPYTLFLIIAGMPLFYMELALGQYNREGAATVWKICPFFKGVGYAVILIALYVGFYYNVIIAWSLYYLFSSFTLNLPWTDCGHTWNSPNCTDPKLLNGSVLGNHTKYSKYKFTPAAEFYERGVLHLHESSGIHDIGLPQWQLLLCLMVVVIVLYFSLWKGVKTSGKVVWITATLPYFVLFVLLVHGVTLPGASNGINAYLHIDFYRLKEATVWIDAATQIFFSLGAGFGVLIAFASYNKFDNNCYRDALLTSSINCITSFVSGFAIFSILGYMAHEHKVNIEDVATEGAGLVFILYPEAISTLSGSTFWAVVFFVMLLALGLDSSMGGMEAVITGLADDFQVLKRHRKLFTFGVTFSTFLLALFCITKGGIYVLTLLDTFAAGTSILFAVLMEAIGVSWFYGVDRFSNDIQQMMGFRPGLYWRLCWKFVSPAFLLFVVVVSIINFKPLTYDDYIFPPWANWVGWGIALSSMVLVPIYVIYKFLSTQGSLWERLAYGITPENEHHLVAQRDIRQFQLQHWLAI

Cytochrome P450 3A4 = Cytochrome P450 3A4 (Homo sapiens, UniProt P08684); settings: bti-tn-5b1-4; also: in other assays of this panel Not Active means under 50% inhibition at 10 µM
[3] = target: 5-hydroxytryptamine receptor 2B (Homo sapiens, UniProt P41595); format: cell membranes, CHO-K1, Membrane; settings: cho-k1; also: in other assays of this panel Not Active means under 50% inhibition at 10 µM
Sequence of 5-hydroxytryptamine receptor 2B (P41595 whole entry): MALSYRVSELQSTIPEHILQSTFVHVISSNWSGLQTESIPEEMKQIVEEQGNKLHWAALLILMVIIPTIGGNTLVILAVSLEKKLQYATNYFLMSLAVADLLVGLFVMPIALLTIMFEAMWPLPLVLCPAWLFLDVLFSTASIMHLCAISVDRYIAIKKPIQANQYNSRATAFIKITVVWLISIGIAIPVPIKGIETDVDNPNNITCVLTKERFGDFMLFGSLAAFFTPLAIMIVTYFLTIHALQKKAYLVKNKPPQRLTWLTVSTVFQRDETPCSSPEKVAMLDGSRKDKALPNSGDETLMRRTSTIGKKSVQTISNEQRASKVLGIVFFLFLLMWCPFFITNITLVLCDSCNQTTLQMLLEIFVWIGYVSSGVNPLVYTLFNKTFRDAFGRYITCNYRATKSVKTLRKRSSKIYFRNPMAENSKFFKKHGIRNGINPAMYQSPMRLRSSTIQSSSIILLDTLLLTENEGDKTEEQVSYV

Cytochrome P450 2D6 = Cytochrome P450 2D6 (Homo sapiens, UniProt P10635); settings: bti-tn-5b1-4; also: in other assays of this panel Not Active means under 50% inhibition at 10 µM
Sequence of Cytochrome P450 2D6 (P10635 whole entry): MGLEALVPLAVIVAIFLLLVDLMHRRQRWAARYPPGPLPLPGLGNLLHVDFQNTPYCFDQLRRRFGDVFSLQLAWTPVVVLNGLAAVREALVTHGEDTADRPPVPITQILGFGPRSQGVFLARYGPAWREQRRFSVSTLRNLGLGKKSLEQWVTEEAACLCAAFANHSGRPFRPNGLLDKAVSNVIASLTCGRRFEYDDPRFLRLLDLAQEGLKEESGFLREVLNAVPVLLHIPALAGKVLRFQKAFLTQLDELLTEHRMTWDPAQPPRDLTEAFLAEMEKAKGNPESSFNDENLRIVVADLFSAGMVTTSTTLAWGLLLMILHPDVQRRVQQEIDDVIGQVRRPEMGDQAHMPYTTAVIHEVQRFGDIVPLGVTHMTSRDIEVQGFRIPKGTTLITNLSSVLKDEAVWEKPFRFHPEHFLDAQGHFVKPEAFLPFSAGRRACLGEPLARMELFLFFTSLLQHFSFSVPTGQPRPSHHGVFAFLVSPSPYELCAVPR

Glucocorticoid receptor = target: T1, Glucocorticoid receptor (Homo sapiens, UniProt P04150); settings: hela s3; also: in other assays of this panel Not Active means under 50% inhibition at 10 µM
T1 sequence (P04150 whole entry): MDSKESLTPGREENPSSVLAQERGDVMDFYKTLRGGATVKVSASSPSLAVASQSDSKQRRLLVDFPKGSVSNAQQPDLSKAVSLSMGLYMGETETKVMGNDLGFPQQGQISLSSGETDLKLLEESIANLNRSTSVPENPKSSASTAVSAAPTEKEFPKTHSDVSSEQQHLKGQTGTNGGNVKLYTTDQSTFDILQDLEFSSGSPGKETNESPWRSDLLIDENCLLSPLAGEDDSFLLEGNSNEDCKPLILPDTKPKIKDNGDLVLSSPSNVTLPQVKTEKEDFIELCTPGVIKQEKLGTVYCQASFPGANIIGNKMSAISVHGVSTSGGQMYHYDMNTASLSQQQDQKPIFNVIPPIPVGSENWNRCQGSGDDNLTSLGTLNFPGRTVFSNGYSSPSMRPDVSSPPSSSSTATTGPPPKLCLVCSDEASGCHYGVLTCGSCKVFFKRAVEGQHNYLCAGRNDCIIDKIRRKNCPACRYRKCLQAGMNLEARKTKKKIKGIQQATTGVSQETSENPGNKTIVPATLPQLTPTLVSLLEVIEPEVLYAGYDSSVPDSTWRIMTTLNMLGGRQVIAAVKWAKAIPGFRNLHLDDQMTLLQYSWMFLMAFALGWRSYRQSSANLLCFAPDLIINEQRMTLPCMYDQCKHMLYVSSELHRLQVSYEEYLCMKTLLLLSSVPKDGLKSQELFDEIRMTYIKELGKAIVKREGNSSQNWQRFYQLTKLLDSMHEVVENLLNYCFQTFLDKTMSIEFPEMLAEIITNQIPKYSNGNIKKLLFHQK

Cytochrome P450 2C19 = Cytochrome P450 2C19 (Homo sapiens, UniProt P33261); settings: bti-tn-5b1-4; also: in other assays of this panel Not Active means under 50% inhibition at 10 µM
Sequence of Cytochrome P450 2C19 (P33261 whole entry): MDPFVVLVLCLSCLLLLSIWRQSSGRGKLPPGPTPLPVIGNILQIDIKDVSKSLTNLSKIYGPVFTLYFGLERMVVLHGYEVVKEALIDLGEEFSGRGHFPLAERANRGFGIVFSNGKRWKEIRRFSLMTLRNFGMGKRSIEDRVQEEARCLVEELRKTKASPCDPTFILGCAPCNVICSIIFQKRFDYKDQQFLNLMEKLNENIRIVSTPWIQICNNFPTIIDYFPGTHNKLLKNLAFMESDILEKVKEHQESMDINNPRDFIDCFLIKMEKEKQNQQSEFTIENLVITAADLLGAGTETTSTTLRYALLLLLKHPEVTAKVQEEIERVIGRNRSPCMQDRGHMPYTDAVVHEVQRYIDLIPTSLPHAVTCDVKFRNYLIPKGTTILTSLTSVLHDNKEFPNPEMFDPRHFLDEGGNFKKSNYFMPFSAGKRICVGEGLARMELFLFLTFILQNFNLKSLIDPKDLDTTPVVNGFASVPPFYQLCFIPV

[4] = DRUGMATRIX: Glutamate, NMDA, Agonism radioligand binding (ligand: [3H] CGP-39653); format: cell membranes, Rattus norvegicus, Wistar, Cerebral cortex, Membrane; settings: Not Active = under 50% inhibition at 10 µM
[5] = target: Voltage-gated inwardly rectifying potassium channel KCNH2 (Homo sapiens, UniProt Q12809); settings: hek293; also: in other assays of this panel Not Active means under 50% inhibition at 10 µM
Sequence of Voltage-gated inwardly rectifying potassium channel KCNH2 (Q12809 whole entry): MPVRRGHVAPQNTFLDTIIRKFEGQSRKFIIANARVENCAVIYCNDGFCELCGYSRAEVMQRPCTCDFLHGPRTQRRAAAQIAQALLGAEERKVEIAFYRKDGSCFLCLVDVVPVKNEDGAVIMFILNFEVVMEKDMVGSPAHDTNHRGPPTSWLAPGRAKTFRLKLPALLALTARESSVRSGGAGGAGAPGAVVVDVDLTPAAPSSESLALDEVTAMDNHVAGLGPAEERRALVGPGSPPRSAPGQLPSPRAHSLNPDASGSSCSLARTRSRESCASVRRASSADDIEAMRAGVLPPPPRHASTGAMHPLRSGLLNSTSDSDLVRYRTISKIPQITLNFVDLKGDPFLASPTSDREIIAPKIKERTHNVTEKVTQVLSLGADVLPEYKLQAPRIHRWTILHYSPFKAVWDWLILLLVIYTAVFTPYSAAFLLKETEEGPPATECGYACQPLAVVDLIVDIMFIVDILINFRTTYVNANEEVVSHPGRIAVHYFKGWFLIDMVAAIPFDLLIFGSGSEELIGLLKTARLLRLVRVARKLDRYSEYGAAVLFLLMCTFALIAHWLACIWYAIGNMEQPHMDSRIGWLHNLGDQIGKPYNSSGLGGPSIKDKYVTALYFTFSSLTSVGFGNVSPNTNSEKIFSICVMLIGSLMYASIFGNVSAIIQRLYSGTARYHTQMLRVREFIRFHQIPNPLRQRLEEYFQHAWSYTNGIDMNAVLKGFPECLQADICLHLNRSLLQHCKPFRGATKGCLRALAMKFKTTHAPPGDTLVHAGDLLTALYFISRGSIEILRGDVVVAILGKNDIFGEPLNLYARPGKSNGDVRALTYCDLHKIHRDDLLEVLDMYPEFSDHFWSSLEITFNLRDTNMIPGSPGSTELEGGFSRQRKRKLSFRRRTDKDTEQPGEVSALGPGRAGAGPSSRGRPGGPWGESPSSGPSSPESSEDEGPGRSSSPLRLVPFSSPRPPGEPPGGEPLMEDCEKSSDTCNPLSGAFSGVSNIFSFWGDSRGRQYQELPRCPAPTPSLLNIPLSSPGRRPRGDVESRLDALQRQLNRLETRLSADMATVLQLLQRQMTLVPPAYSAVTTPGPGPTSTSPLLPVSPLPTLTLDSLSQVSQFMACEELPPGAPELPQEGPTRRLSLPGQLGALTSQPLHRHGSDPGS

Nitric oxide synthase 1 = Nitric oxide synthase 1 (Rattus norvegicus, UniProt P29476); format: tissue-based, Cerebellum; also: in other assays of this panel Not Active means under 50% inhibition at 10 µM
Sequence of Nitric oxide synthase 1 (P29476 whole entry): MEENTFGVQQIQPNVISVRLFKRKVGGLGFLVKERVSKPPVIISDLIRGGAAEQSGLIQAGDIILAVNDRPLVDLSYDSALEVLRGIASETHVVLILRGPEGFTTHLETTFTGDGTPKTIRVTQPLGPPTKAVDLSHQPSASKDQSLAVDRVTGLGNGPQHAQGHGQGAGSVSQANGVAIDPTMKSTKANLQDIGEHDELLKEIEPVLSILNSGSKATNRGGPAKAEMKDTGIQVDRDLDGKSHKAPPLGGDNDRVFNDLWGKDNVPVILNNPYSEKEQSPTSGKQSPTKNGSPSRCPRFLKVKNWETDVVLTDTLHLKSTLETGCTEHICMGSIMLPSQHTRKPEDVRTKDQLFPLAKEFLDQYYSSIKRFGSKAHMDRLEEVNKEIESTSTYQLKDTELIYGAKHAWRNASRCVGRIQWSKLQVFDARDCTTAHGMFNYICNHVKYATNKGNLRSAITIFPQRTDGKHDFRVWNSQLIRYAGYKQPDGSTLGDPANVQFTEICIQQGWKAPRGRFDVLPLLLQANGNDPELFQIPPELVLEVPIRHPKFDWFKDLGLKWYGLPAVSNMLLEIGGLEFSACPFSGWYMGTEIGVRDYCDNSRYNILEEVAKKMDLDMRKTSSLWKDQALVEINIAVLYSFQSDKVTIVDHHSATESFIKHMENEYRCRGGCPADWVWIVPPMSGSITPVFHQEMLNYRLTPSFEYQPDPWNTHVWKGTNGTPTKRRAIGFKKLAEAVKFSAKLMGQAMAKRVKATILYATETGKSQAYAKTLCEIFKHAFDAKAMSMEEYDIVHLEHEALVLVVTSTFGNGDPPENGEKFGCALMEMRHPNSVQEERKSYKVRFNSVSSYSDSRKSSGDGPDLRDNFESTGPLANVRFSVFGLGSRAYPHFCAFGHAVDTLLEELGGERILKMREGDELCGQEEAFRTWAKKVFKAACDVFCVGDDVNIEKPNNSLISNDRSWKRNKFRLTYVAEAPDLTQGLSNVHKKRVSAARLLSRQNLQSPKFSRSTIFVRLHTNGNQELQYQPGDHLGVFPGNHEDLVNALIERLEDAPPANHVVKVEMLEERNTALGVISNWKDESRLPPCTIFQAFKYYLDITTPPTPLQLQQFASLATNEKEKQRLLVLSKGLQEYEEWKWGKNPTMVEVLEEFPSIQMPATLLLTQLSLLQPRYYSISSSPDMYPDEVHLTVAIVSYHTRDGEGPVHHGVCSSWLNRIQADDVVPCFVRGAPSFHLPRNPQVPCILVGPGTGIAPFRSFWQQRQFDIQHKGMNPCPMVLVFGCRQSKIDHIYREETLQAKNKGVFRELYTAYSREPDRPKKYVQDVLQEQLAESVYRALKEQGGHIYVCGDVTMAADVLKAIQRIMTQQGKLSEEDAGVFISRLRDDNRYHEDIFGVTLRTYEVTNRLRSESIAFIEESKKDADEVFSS

[6] = DRUGMATRIX: GABAA, Flunitrazepam, Central radioligand binding (ligand: [3H] Flunitrazepam); format: cell membranes, Rattus norvegicus, Wistar, Brain, Membrane; settings: Not Active = under 50% inhibition at 10 µM
[7] = target: T2, Muscarinic acetylcholine receptor M5 (Homo sapiens, UniProt P08912); format: cell membranes, CHO-K1, Membrane; also: in other assays of this panel Not Active means under 50% inhibition at 10 µM
T2 sequence (P08912 whole entry): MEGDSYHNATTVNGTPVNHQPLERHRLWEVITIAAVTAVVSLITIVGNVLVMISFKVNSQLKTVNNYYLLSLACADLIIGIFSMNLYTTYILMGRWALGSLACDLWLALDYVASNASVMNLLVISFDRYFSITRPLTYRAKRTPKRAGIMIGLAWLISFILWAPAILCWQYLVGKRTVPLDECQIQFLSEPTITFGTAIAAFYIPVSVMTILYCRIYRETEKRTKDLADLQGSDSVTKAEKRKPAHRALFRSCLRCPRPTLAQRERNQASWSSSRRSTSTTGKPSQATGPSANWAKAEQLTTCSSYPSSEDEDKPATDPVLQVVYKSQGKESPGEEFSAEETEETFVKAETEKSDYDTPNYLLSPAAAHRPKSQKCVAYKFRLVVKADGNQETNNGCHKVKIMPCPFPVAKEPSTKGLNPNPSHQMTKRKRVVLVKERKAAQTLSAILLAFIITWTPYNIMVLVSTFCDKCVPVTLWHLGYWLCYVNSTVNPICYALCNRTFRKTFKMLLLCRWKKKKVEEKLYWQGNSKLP

Estrogen receptor beta = Estrogen receptor beta (Homo sapiens, UniProt Q92731); settings: sf9; also: in other assays of this panel Not Active means under 50% inhibition at 10 µM

Compound | IC50 [1] | Ki [1] | IC50 [2] | IC50 (Cytochrome P450 3A4) | Ki (Cytochrome P450 3A4) | IC50 [3] | IC50 (Cytochrome P450 2D6) | Ki (Cytochrome P450 2D6) | IC50 (Glucocorticoid receptor) | IC50 (Cytochrome P450 2C19) | Ki (Cytochrome P450 2C19) | IC50 [4] | Ki [4] | IC50 [5] | Ki [5] | IC50 (Nitric oxide synthase 1) | IC50 [6] | Ki [6] | IC50 ([7]; cho-k1) | other results
NC(=O)c1ncn([C@@H]2O[C@H](CO)[C@@H](O)[C@H]2O)n1 [RIBAVIRIN] | Not Active | Not Active | Not Active | Not Active | Not Active | Not Active | Not Active | Not Active | Not Active | Not Active | Not Active | Not Active | Not Active | Not Active | Not Active | Not Active | Not Active | Not Active | Not Active | –
CN[C@@H]1[C@@H](O)[C@@H](O[C@@H]2[C@@H](O)[C@H](O[C@H]3OC(CN)=CC[C@H]3N)[C@@H](N)C[C@H]2N)OC[C@]1(C)O [SISOMICIN] | Not Active | Not Active | Not Active | – | – | Not Active | – | – | Not Active | – | – | Not Active | Not Active | Not Active | Not Active | Not Active | Not Active | Not Active | Not Active | –
C[C@]12Cc3c[nH]nc3C[C@@H]1CC[C@@H]1[C@@H]2CC[C@@]2(C)[C@H]1CC[C@]2(C)O [STANOZOLOL] | Not Active | Not Active | Not Active | Not Active | Not Active | Not Active | – | – | Not Active | – | – | Not Active | Not Active | Not Active | Not Active | Not Active | Not Active | Not Active | Not Active | –
CC(C)(C)NCC(O)c1cc(O)cc(O)c1 (configuration not stated) [TERBUTALINE] | Not Active | Not Active | Not Active | Not Active | Not Active | Not Active | Not Active | Not Active | – | Not Active | Not Active | Not Active | Not Active | Not Active | Not Active | Not Active | Not Active | Not Active | Not Active | –
CN1[C@@H]2CC[C@H]1C[C@@H](OC(=O)c1c[nH]c3ccccc13)C2 [TROPISETRON] | Not Active | Not Active | Not Active | Not Active | Not Active | Not Active | Not Active | Not Active | – | Not Active | Not Active | Not Active | Not Active | Not Active | Not Active | Not Active | – | – | – | IC50 (Estrogen receptor beta): Not Active; IC50 ([6]; read-out: IC50): 1140 nM; Ki ([6]; read-out: Ki): 926 nM; IC50 ([7]; read-out: IC50): 3450 nM; Ki ([7]; read-out: Ki): 2480 nM
COc1ccc(C(CN(C)C)C2(O)CCCCC2)cc1 (configuration not stated) [VENLAFAXINE] | Not Active | Not Active | – | Not Active | Not Active | Not Active | Not Active | Not Active | – | Not Active | Not Active | Not Active | Not Active | Not Active | Not Active | Not Active | Not Active | Not Active | Not Active | –
